Experimental data taken from PubChem BioAssay (NCI).
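Assay format: 96-well plates, 48-hour exposure. TGI denotes the concentration required for complete inhibition of growth.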

How the values were obtained:
Assay in all cases: NCI anticancer screen, dose series, 48 h
[1] = system: UO-31 renal
[2] = system: 786-0 renal
[3] = system: MDA-MB-231 breast
[4] = system: HCT-116 colon
[5] = system: UACC-62 melanoma
[6] = system: DU-145 prostate
[7] = system: PC-3 prostate
[8] = system: K-562 leukemia
[9] = system: RXF 393 renal
[10] = system: HOP-62 NSCLC
[11] = system: OVCAR-8 ovarian
[12] = system: RPMI-8226 leukemia
[13] = system: NCI-H522 lung
[14] = system: OVCAR-3 ovarian
[15] = system: NCI-H226 lung
[16] = system: CAKI-1 renal
[17] = system: T-47D breast
[18] = system: NCI-H23 lung
[19] = system: SF-268 CNS
[20] = system: SNB-19 CNS
[21] = system: SR leukemia
[22] = system: MALME-3M melanoma
[23] = system: SK-MEL-28 melanoma
[24] = system: MOLT-4 leukemia
[25] = system: ACHN renal
[26] = system: SF-539 CNS
[27] = system: MDA-N
[28] = system: HCT-15 colon
[29] = system: M14 melanoma
[30] = system: IGROV1 ovarian
[31] = system: MDA-MB-435
[32] = system: EKVX NSCLC
[33] = system: LOX IMVI melanoma
[34] = system: SK-MEL-5 melanoma
[35] = system: HS 578T breast
[36] = system: NCI/ADR-RES ovarian
[37] = system: HT29 colon
[38] = system: SK-OV-3 ovarian
[39] = system: CCRF-CEM leukemia
[40] = system: A498 renal
[41] = system: KM12 colon
[42] = system: BT-549 breast
[43] = system: OVCAR-4 ovarian
[44] = system: MCF7 breast
[45] = system: A549 NSCLC
[46] = system: HL-60(TB) leukemia
[47] = system: HCC-2998 colon
[48] = system: COLO 205 colon
[49] = system: SN12C renal
[50] = system: TK-10 renal
[51] = system: HOP-92 NSCLC
[52] = system: UACC-257 melanoma
[53] = system: SW-620 colon
[54] = system: NCI-H460 lung
[55] = system: SK-MEL-2 melanoma
[56] = system: SF-295 CNS
[57] = system: OVCAR-5 ovarian
[58] = system: U251 CNS
[59] = system: SNB-75 CNS

Q: For `O=C(C(Cl)=C(N1CCOCC1)N1CCOCC1)C(Cl)Cl`, which TGI [1] is on record?
A: Its TGI is > 100 µM.

Q: What about the TGI [2] of the same molecule?
A: Its TGI is > 100 µM.

Q: And the TGI [3]?
A: Its TGI is > 100 µM.

Q: And the TGI [4]?
A: Its TGI is > 100 µM.

Q: And the TGI [5]?
A: Its TGI is > 100 µM.

Q: What about the TGI [6] of the same molecule?
A: The TGI was > 100 µM.

Q: What about the TGI [7] of the same molecule?
A: Its TGI is > 100 µM.

Q: What about the TGI [8] of the same molecule?
A: The TGI was > 100 µM.

Q: And the TGI [9]?
A: The TGI was > 100 µM.

Q: What about the TGI [10] of the same molecule?
A: The TGI was > 100 µM.

Q: And the TGI [11]?
A: The TGI was > 100 µM.

Q: And the TGI [12]?
A: Its TGI is > 100 µM.

Q: And the TGI [13]?
A: The TGI was > 100 µM.

Q: What about the TGI [14] of the same molecule?
A: The TGI was > 100 µM.

Q: And the TGI [15]?
A: Its TGI is > 100 µM.

Q: And the TGI [16]?
A: Its TGI is > 100 µM.

Q: What about the TGI [17] of the same molecule?
A: Its TGI is > 100 µM.

Q: And the TGI [18]?
A: Its TGI is > 100 µM.

Q: What about the TGI [19] of the same molecule?
A: Its TGI is > 100 µM.

Q: And the TGI [20]?
A: The TGI was > 100 µM.

Q: What about the TGI [21] of the same molecule?
A: The TGI was > 100 µM.

Q: And the TGI [22]?
A: The TGI was > 100 µM.

Q: And the TGI [23]?
A: Its TGI is > 100 µM.

Q: And the TGI [24]?
A: Its TGI is > 100 µM.

Q: And the TGI [25]?
A: The TGI was > 100 µM.

Q: What about the TGI [26] of the same molecule?
A: Its TGI is > 100 µM.

Q: What about the TGI [27] of the same molecule?
A: Its TGI is > 100 µM.

Q: And the TGI [28]?
A: Its TGI is > 100 µM.

Q: And the TGI [29]?
A: The TGI was > 100 µM.

Q: And the TGI [30]?
A: The TGI was > 100 µM.

Q: And the TGI [31]?
A: Its TGI is > 100 µM.

Q: And the TGI [32]?
A: Its TGI is > 100 µM.

Q: And the TGI [33]?
A: The TGI was > 100 µM.

Q: And the TGI [34]?
A: The TGI was > 100 µM.

Q: And the TGI [35]?
A: Its TGI is > 100 µM.

Q: What about the TGI [36] of the same molecule?
A: The TGI was > 100 µM.

Q: And the TGI [37]?
A: Its TGI is > 100 µM.

Q: What about the TGI [38] of the same molecule?
A: Its TGI is > 100 µM.

Q: And the TGI [39]?
A: Its TGI is > 100 µM.

Q: And the TGI [40]?
A: The TGI was > 100 µM.

Q: What about the TGI [41] of the same molecule?
A: Its TGI is > 100 µM.

Q: What about the TGI [42] of the same molecule?
A: Its TGI is > 100 µM.

Q: And the TGI [43]?
A: Its TGI is > 100 µM.

Q: What about the TGI [44] of the same molecule?
A: The TGI was > 100 µM.

Q: And the TGI [45]?
A: Its TGI is > 100 µM.

Q: And the TGI [46]?
A: Its TGI is > 100 µM.

Q: And the TGI [47]?
A: Its TGI is > 100 µM.

Q: And the TGI [48]?
A: The TGI was > 100 µM.

Q: What about the TGI [49] of the same molecule?
A: Its TGI is > 100 µM.

Q: What about the TGI [50] of the same molecule?
A: The TGI was > 100 µM.

Q: What about the TGI [51] of the same molecule?
A: Its TGI is > 100 µM.

Q: What about the TGI [52] of the same molecule?
A: Its TGI is > 100 µM.

Q: What about the TGI [53] of the same molecule?
A: The TGI was > 100 µM.

Q: What about the TGI [54] of the same molecule?
A: The TGI was > 100 µM.

Q: How did the TGI [1] turn out when `CC(C)CCC1(CCN)C(=O)NC(=O)NC1=O` was run?
A: Its TGI is > 100 µM.

Q: What about the TGI [2] of the same molecule?
A: Its TGI is > 100 µM.

Q: And the TGI [3]?
A: The TGI was > 100 µM.

Q: And the TGI [4]?
A: Its TGI is > 100 µM.

Q: What about the TGI [5] of the same molecule?
A: Its TGI is > 100 µM.

Q: And the TGI [6]?
A: The TGI was > 100 µM.

Q: What about the TGI [7] of the same molecule?
A: Its TGI is > 100 µM.

Q: What about the TGI [8] of the same molecule?
A: Its TGI is > 100 µM.

Q: And the TGI [9]?
A: Its TGI is > 100 µM.

Q: What about the TGI [10] of the same molecule?
A: The TGI was > 100 µM.

Q: What about the TGI [11] of the same molecule?
A: Its TGI is > 100 µM.

Q: And the TGI [12]?
A: The TGI was > 100 µM.

Q: What about the TGI [13] of the same molecule?
A: Its TGI is > 100 µM.

Q: And the TGI [14]?
A: Its TGI is > 100 µM.

Q: And the TGI [15]?
A: Its TGI is > 100 µM.

Q: What about the TGI [16] of the same molecule?
A: Its TGI is > 100 µM.

Q: And the TGI [17]?
A: Its TGI is > 100 µM.

Q: And the TGI [18]?
A: Its TGI is > 100 µM.

Q: And the TGI [19]?
A: The TGI was > 100 µM.

Q: What about the TGI [55] of the same molecule?
A: The TGI was > 100 µM.

Q: And the TGI [20]?
A: The TGI was > 100 µM.

Q: What about the TGI [21] of the same molecule?
A: The TGI was > 100 µM.

Q: And the TGI [22]?
A: The TGI was > 100 µM.

Q: What about the TGI [23] of the same molecule?
A: Its TGI is > 100 µM.

Q: And the TGI [24]?
A: The TGI was 72.2 µM.

Q: And the TGI [25]?
A: Its TGI is > 100 µM.

Q: And the TGI [26]?
A: The TGI was > 100 µM.

Q: And the TGI [27]?
A: The TGI was > 100 µM.

Q: And the TGI [28]?
A: The TGI was > 100 µM.

Q: What about the TGI [29] of the same molecule?
A: The TGI was > 100 µM.

Q: What about the TGI [56] of the same molecule?
A: Its TGI is > 100 µM.

Q: What about the TGI [30] of the same molecule?
A: Its TGI is > 100 µM.

Q: What about the TGI [31] of the same molecule?
A: The TGI was > 100 µM.

Q: What about the TGI [32] of the same molecule?
A: The TGI was > 100 µM.

Q: What about the TGI [33] of the same molecule?
A: The TGI was > 100 µM.

Q: What about the TGI [34] of the same molecule?
A: Its TGI is > 100 µM.

Q: And the TGI [35]?
A: Its TGI is > 100 µM.

Q: What about the TGI [36] of the same molecule?
A: The TGI was > 100 µM.

Q: What about the TGI [37] of the same molecule?
A: The TGI was > 100 µM.

Q: And the TGI [38]?
A: Its TGI is > 100 µM.

Q: And the TGI [39]?
A: The TGI was 48.3 µM.

Q: What about the TGI [40] of the same molecule?
A: The TGI was > 100 µM.

Q: And the TGI [57]?
A: Its TGI is > 100 µM.

Q: What about the TGI [41] of the same molecule?
A: Its TGI is > 100 µM.

Q: What about the TGI [58] of the same molecule?
A: The TGI was > 100 µM.

Q: And the TGI [42]?
A: The TGI was > 100 µM.

Q: And the TGI [43]?
A: Its TGI is > 100 µM.

Q: And the TGI [44]?
A: Its TGI is > 100 µM.

Q: And the TGI [45]?
A: The TGI was > 100 µM.

Q: And the TGI [46]?
A: The TGI was 66.7 µM.

Q: And the TGI [59]?
A: Its TGI is > 100 µM.

Q: And the TGI [48]?
A: The TGI was > 100 µM.

Q: What about the TGI [49] of the same molecule?
A: Its TGI is > 100 µM.

Q: What about the TGI [50] of the same molecule?
A: The TGI was > 100 µM.

Q: What about the TGI [51] of the same molecule?
A: Its TGI is > 100 µM.

Q: And the TGI [52]?
A: The TGI was > 100 µM.

Q: What about the TGI [53] of the same molecule?
A: The TGI was > 100 µM.

Q: And the TGI [54]?
A: Its TGI is > 100 µM.
